How the values were obtained:
[1] = system: axons of dorsal root ganglia explants; assay: Wallerian degeneration assay of axon in mouse DRG explant culture; format: cell-based, C57BL/6 mice; conditions: 10 µM compound, 2 h pretreatment, 24 h post axonal transection
Procedure: Dorsal root ganglia were dissected from two-month-old male C57BL/6 mice and placed into a 35-mm culture dish containing ice-cold HBSS buffer. Extra tissue surrounding each dorsal ganglion was removed using a scalpel, and the ganglia were cut into 2-3 explant pieces. These explants were seeded into wells of a 96-well plate pre-coated with 100 ng/mL Matrigel (Corning), added with 100 µL of DRG medium (Neurobasal medium (Gibco) containing 2% B-27 (Gibco), 1% GlutaMAX (Gibco) and 10 ng/mL NGF (MCE)), and cultured in a 37°C incubator for one week. The medium was half- replaced on the fourth day and the experiments were counted on the eighth day.
Refer to methods reported in literatures in the related art (Gerdts J, Sasaki Y, Vohra B, Marasa J, Milbrandt J. Image-based screening identifies novel roles for IkappaB kinase and glycogen synthase kinase 3 in axonal degeneration. J Biol Chem. 2011 Aug 12;286(32):28011-8) for the definition and measurement principle of the degeneration index of axon. In the present disclosure, the measurement method is detaild below.
0.1 µL of 10 mM compound to be tested was added to 100 µL of DRG medium to prepare a new medium containing 10 µM compound to be tested. The medium in the 96-well plate was removed and replaced with the new medium containing the compound to be tested. Explant pieces of dorsal ganglia were incubated with compounds in a 37°C incubator for 2 h of pre-protection. Following this 2-hour pretreatment, axons were transcted near the explants tissue piece using a glass microelectrode. At 0 h and 24 h post axonal transection, brightfield images of axons in the same region were captured using a microscope (Olympus) with 20× objective. Axonal integrity was assessed using an in-house developed script. The results were categorized based on the degree of protection into: (A) >50% and (B) 20-50%.

[2] = target: T1, SARM1 (Homo sapiens, UniProt Q6SZW1); assay: In vitro biochemical assay for inhibiting SARM1 enzymatic activity (PC6 fluorescence, NAD substrate, NMN activator); conditions: 0.05 µg/mL SARM1, 50 µM NAD, 50 µM PC6, 50 µM NMN, 10 min pre-incubation, 30 min at room temperature
T1 construct: the inventor produces full-length SARM1 for NADase activity assays and for screening; His (C); made in house; host or cells: HEK293 cells (transient transfection; digitonin lysate supernatant, not purified further)
T1 sequence (Q6SZW1 28-724): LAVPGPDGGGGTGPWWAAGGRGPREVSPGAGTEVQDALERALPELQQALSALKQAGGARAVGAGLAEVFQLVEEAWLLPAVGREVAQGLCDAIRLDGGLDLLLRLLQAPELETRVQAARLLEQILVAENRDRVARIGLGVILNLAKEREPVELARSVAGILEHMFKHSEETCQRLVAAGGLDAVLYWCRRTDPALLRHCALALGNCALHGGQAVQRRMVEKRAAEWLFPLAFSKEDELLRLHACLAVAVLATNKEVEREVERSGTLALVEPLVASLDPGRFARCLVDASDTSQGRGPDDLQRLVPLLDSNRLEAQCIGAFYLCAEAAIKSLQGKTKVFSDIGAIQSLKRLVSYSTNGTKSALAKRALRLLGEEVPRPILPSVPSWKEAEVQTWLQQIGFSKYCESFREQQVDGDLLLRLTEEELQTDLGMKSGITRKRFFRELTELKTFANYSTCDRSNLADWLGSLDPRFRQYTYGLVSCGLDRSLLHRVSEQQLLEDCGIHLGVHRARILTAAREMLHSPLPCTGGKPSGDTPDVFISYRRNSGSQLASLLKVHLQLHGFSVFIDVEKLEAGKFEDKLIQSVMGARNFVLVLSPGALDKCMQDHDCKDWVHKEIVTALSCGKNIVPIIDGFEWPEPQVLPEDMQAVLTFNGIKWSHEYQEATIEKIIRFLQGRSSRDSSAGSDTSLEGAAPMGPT
Procedure: Compounds to be tested were stocked at 200 µM or 10 mM (in DMSO), and further diluted to the desired compound concentration for the in vitro SARM1 enzyme assay and inhibitor screening.
The gene sequence encoding SARM1 protein was amplified by PCR and the PCR amplification product was constructed into the pcDNA3.1-HIS-C plasmid. This construction was completed by YouBio Biological Technology (Hunan, China).
HEK293 cells were cultured in DMEM in a 10 cm dish. The next day, cells were transfected with 15 µg of the pcDNA3.1-SARM1-HIS-C expression plasmid.
Cells were harvested 48 hours after the transfection. The SARM1 protein expressed in cells was obtained through cell lysis by digitonin, which was used for in vitro activity assay. The specific process was as follows:
Cells were digested and detached from the dish using trypsin-EDTA, centrifuged at 1000 rpm for 5 minutes, washed once with PBS, then resuspended in PBS containing 100 µM digitonin at 0.6 mL PBS for the cells in 10 cm dish and lysed for 5 min. The cells were added with trypan blue and observed under a microscope. More than 90% of the cells were confirmed to be lysed. The cells were centrifuged at 5000 rpm for 10 min, and the supernatant containing SARM1 protein was collected.
The compound was added into a solution of 50 mM Tris-HCl (pH 7.5) containing 0.05 µg/mL SARM1 to achieve a concentration of 200 µM, and then serially diluted 6 times, where each dilution was carried out by taking half of the previous solution and adding an equal volume of 50 mM Tris-HCl (pH 7.5) containing 0.05 µg/mL SARM1, yielding a set of final concentrations of the compound of either 200, 100, 50, 25, 12.5, 6.25 and 3.125 µM, or 200, 50, 12.5, 3.125, 0.78, 0.195 and 0.049 µM. No inhibitor was added in the control group. All mixtures were incubated at room temperature for 10 min.
Subsequently, 50 µM NAD, 50 µM PC6 as substrate and 50 µM NMN as activator were added to the SARM1 protein incubated with the inhibitor and reacted for 30 min at room temperature. Wherein, the aforementioned concentrations of each component represent their respective final concentrations in the reaction system
During the reaction, the fluorescence spectrum dynamics of PC6 was detected by a microplate reader, with excitation and emission wavelengths set at 390 nm and 520 nm, respectively. The activity of the protein was expressed as the reaction rate and half maximal inhibitory concentration was calculated. The higher the reaction rate, the stronger the protein activity, and the lower the inhibitory efficiency of the compound.
Dose-response curves for inhibition of SARM1 enzymatic activity for NAD by the compounds were plotted using the above method.

With `O=C1C(Cc2ccc(Cl)nc2)CCN1c1ccc(-c2ccncc2)nn1` (stereo not drawn) [Compound 64] the “Degree of protection against axonal Wallerian Degeneration” value (“Degree of protection” below) [1] was “A ((A) >50%)” and the IC50 [2] was less than 1 µM.

`O=C1C(Cc2ccc(Cl)s2)CCN1c1ccc(-c2ccncc2)nn1` (stereo not drawn) [Compound 66] was tested, and the “Degree of protection” value [1] was “A ((A) >50%)” and the IC50 [2] was less than 1 µM.

In the case of `O=C1C(Cc2ccc(Cl)nc2)CCN1c1ccc(-c2ccncc2)cc1` (stereo not drawn) [Compound 25, 3-((6-chloropyridin-3-yl)methyl)-1-(4-(pyridin-4-yl)phenyl)pyrrolidin-2-one], the “Degree of protection” value [1] is reported as “A ((A) >50%)” and the IC50 [2] is reported as 1 to 10 µM.

`Cc1ccc(CC2CCN(c3ccc(-c4ccncc4)cc3)C2=O)cc1` (stereo not drawn) [Compound 17, 3-(4-methylbenzyl)-1-(4-(pyridin-4-yl)phenyl)pyrrolidin-2-one] was tested, and the “Degree of protection” value [1] was “A ((A) >50%)” and the IC50 [2] was 1 to 10 µM.

In the case of `[2H]C(c1ccc(Cl)cc1)C1([2H])CCN(c2ccc(-c3ccncc3)cc2)C1=O` (stereo not drawn) [Compound 80, 3-((4-chlorophenyl)methyl-deutero)-1-(4-(pyridin-4-yl)phenyl)-3-deutero-pyrrolidin-2-one], the “Degree of protection” value [1] is reported as “B ((B) 20-50%)” and the IC50 [2] is reported as 1 to 10 µM.

With `O=C1C(Cc2cc(F)c(F)c(F)c2)CCN1c1ccc(-c2ccncc2)cc1` (stereo not drawn) [Compound 72] the “Degree of protection” value [1] was “A ((A) >50%)” and the IC50 [2] was less than 1 µM.

With `N#Cc1cc(-c2ccncc2)ccc1N1CCC(Cc2ccc(Cl)cc2)C1=O` (stereo not drawn) [Compound 21, 2-(3-(4-chlorobenzyl)-2-pyrrolidinone-1-yl)-5-(pyridin-4-yl)benzonitrile] the “Degree of protection” value [1] was “B ((B) 20-50%)” and the IC50 [2] was 10 to 30 µM.

`O=C1C(Cc2ccc(F)cc2F)CCN1c1ccc(-c2ccncc2)nn1` (stereo not drawn) [Compound 70] was tested, and the “Degree of protection” value [1] was “B ((B) 20-50%)” and the IC50 [2] was less than 1 µM.

With `O=C1C(Cc2ccc(Cl)s2)CCN1c1ccc(-c2ccncc2)cc1` (stereo not drawn) [Compound 29, 3-((5-chlorothiophen-2-yl)methyl)-1-(4-(pyridin-4-yl)phenyl)pyrrolidin-2-one] the “Degree of protection” value [1] was “A ((A) >50%)” and the IC50 [2] was less than 1 µM.

`O=C1N(Cc2ccc(Cl)cc2)CCN1c1ccc(-c2ccncc2)nn1` [Compound 59, 1-(4-chlorobenzyl)-3-(6-(pyridin-4-yl)pyridazin-3-yl)imidazolidin-2-one] was tested, and the “Degree of protection” value [1] was “B ((B) 20-50%)” and the IC50 [2] was less than 1 µM.

In the case of `O=C1C(Cc2ccc(F)cc2F)CCN1c1ccc(-c2ccncc2)cc1` (stereo not drawn) [Compound 41, 3-(2,4-difluorobenzyl)-1-(4-(pyridin-4-yl)phenyl)pyrrolidin-2-one], the “Degree of protection” value [1] is reported as “B ((B) 20-50%)” and the IC50 [2] is reported as 1 to 10 µM.

`O=C1C(Cc2ccc(F)cc2)CCN1c1ccc(-c2ccncc2)nn1` (stereo not drawn) [Compound 55, 3-(4-fluorobenzyl)-1-(6-(pyridin-4-yl)pyridazin-3-yl)pyrrolidin-2-one] was tested, and the “Degree of protection” value [1] was “B ((B) 20-50%)” and the IC50 [2] was less than 1 µM.

For `O=C1[C@H](Cc2ccc(F)c(F)c2)CCN1c1ccc(-c2ccncc2)cc1` (single isomer, unassigned) [Compound 81], the “Degree of protection” value [1] was “A ((A) >50%)” and the IC50 [2] was less than 1 µM.

In the case of `O=C1C(Cc2cc(F)c(F)c(F)c2)CCN1c1ccc(-c2ccncc2)nn1` (stereo not drawn) [Compound 71], the “Degree of protection” value [1] is reported as “A ((A) >50%)” and the IC50 [2] is reported as less than 1 µM.

In the case of `O=C1C(Cc2ccc(F)c(F)c2)CCN1c1ccc(-c2ccncc2)cc1` (racemic) [Compound 30, 3-(3,4-difluorobenzyl)-1-(4-(pyridin-4-yl)phenyl)pyrrolidin-2-one], the “Degree of protection” value [1] is reported as “A ((A) >50%)” and the IC50 [2] is reported as less than 1 µM.

`O=C1C(Cc2ccc(Cl)cc2)CCN1c1ccc(-c2ccncc2)cc1` (stereo not drawn) [Compound 1, 3-(4-chlorobenzyl)-1-(4-(pyridin-4-yl)phenyl)pyrrolidin-2-one] was tested, and the “Degree of protection” value [1] was “A ((A) >50%)” and the IC50 [2] was less than 1 µM.

For `O=C1C(Cc2ccccc2)CCN1c1ccc(-c2ccncc2)cc1` (stereo not drawn) [Compound 24, 3-benzyl-1-(4-(pyridin-4-yl)phenyl)pyrrolidin-2-one], the “Degree of protection” value [1] was “B ((B) 20-50%)” and the IC50 [2] was 1 to 10 µM.

With `O=C1C(Cc2ccc(Cl)c(F)c2)CCN1c1ccc(-c2ccncc2)nn1` (stereo not drawn) [Compound 62] the “Degree of protection” value [1] was “B ((B) 20-50%)” and the IC50 [2] was less than 1 µM.

With `O=C1C(Cc2ccc(Cl)cc2)CCN1c1ccc(-c2ccncc2)cn1` (stereo not drawn) [Compound 6, 1-([3,4'-bipyridin]-6-yl)-3-(4-chlorobenzyl)pyrrolin-2-one] the “Degree of protection” value [1] was “A ((A) >50%)” and the IC50 [2] was 1 to 10 µM.

`O=C1C(Cc2ccc(C(F)(F)F)cc2)CCN1c1ccc(-c2ccncc2)nn1` (stereo not drawn) [Compound 60] was tested, and the “Degree of protection” value [1] was “B ((B) 20-50%)” and the IC50 [2] was less than 1 µM.

In the case of `O=C1C(Cc2ccc(Cl)cc2)CCN1c1cnc(-c2ccncc2)cn1` (stereo not drawn) [Compound 20, 3-(4-chlorobenzyl)-1-(5-(pyridin-4-yl)pyrazin-2-yl)pyrrolidin-2-one], the “Degree of protection” value [1] is reported as “B ((B) 20-50%)” and the IC50 [2] is reported as less than 1 µM.

For `[2H]C1(Cc2ccc(F)c(F)c2)CCN(c2ccc(-c3ccncc3)cc2)C1=O` (stereo not drawn) [Compound 83, 3-(3,4-difluorobenzyl)-1-(4-(pyridin-4-yl)phenyl)-3-deutero-pyrrolidin-2-one], the “Degree of protection” value [1] was “A ((A) >50%)” and the IC50 [2] was less than 1 µM.

In the case of `O=C1C(Cc2ccc(F)c(F)c2)=CCN1c1ccc(-c2ccncc2)cc1` [Compound 85, 3-(3,4-difluorobenzyl)-1-(4-(pyridin-4-yl)phenyl)-1,5-dihydro-2H-pyrrolidin-2-one], the IC50 [2] is reported as 1 to 10 µM.

With `Cc1ccc(CC2CCN(c3ccc(-c4ccncc4)nn3)C2=O)cc1` (stereo not drawn) [Compound 63] the IC50 [2] was less than 1 µM.

`O=C1C(Cc2ccc(Cl)cc2)CCN1c1ccc(-c2ccncn2)cc1` (stereo not drawn) [Compound 9, 3-(4-chlorobenzyl)-1-(4-(pyrimidin-4-yl)phenyl)pyrrolidin-2-one] was tested, and the IC50 [2] was 1 to 10 µM.

Work on `O=C1C(Cc2ccc(Cl)o2)CCN1c1ccc(-c2ccncc2)cc1` (stereo not drawn) [Compound 73] yielded an IC50 [2] of 1 to 10 µM.
